Laboratory results taken from patent US20160067211A1, “PHARMACEUTICAL COMPOSITION” (Eberhard Karls Universitaet Tuebingen Medizinische Fakultaet, priority 2013, published 2016).

How the values were obtained:
[1] = system: angiogenesis induced by basic fibroblast growth factor and vascular endothelial growth factor; settings: induced by bFGF and VEGF, three-dimensional collagen gel in vitro; cited from earlier work
[2] = system: LC3 in BLM melanoma cells; test: Western blot LC3 (autophagy), BLM; type: cell-based, human; settings: 100 μM, after 12-24 hours
Experimental: (A) Cell cycle FACS analyses of PI stained BLM and SK-MEL-28 melanoma cells. 100 μM of 8-PN-induced a G2 arrest in both cells. (B) FACS analyses of BLM and SK-MEL-28 melanoma cells treated with 100 μM 6-PN or 8-PN and stained for annexin V/PI; staurosporin was used as control for apoptosis induction and DMSO as vehicle control. […] (C) BLM and SK-MEL-28 melanoma cells were treated with 100 μM of PNs; TSA, SAHA and EMSO were used as controls.
(§1) The following antibodies were used: Anti-Vinculin and Anti-Actin (1:5000, Sigma-Aldrich), Anti-Acetyl-Histon H3 (1:5000, Millipore, Billerica, USA), Anti-Caspase-3 (1:1000), Anti-AKT, Anti-pAKT, Anti-ERK, Anti-pERK, […], Anti-p70S6 Kinase, and Anti-pS6 protein (1:1000), all from Cell Signaling, Frankfurt, Germany), Anti-LC3 (1:5000, Sigma-Aldrich).
Since it has been speculated that the formation of intracytoplasmic vacuoles in pancreatic or breast cancer cells by 6-PN and 8-PN observed in pervious studies might represent an induction of autophagy, this issue was further investigated on a molecular level. BLM and SK-MEL-28 melanoma cells were treated with 100 μM of 6-PN, 8-PN, SAHA or TSA (and with DMSO as control), and the treated cells were lysed for protein extraction after 1 hour, 2 hours, 4 hours, 12 hours and 24 hours. […]

[3] = system: prostate cancer cell line PC-3; settings: PC-3 in vitro; cited from earlier work
BLM melanoma cells = test: Organotypic human epidermal skin reconstructs, BLM; type: cell-based; settings: 100 μM, 40× magnification
Experimental: FIG. 11: 6-PN and 8-PN reduce proliferation and invasion of BLM and LOXIMVI melanoma cells in human epidermal skin reconstructs and induce little embryo toxicity. (A) BLM melanoma cells and keratinocytes were seeded on top of a collagen matrix populated by fibroblasts. After 16 days a keratinizing stratified epithelium with a rudimentary corium is formed. […] (B) Similar results were obtained for LOXIMVI melanoma cells under the same treatment conditions. Only nests of dead, MIB1 negative LOXIMVI cells were detected after treatment with the PNs. […]
In this assay, keratinocytes and melanoma cells are seeded on top of a collagen matrix populated by fibroblasts. […] Untreated control BLM cells (depicting 70-80% proliferation, determined by MIB1 immunhistochemistry) had formed a large tumor in the epidermal part of the reconstruct and had invaded the corium (FIG. 11A, upper panel). To determine the amount of proliferating cells, the number of MIB1 positive melanoma cells per power field in the epidermal part of the reconstruct at the epidermal-dermal border was counted (40× magnification, n=5 adjacent fields examined). Further, the number of melanoma cells invading the dermal part of the reconstruct was counted in the same high power fields. In reconstructs with untreated BLM cells, 103±15 MIB1 positive cells and 39±13 invasive cells were counted (FIG. 11A, upper panel). […]

[4] = system: pS6P, P70S6 kinase, pERK, caspase-3, Bcl-xl in SK-MEL-28 melanoma cells; test: Western blot of signalling proteins; type: cell-based, human; settings: SK-MEL-28, 100 μM
Experimental: FIG. 8: 6-PN and 8-PN decrease expression of pS6p via down regulation of pERK/pP90. Western blot analysis of SK-MEL-28 melanoma cells 1 hour, 2 hours, 4 hours, 12 hours, and 24 hours after treatment with 100 μM 6-PN or 8-PN. 6-PN and 8-PN induced down regulation of pS6p accompanied by a decrease of pERK and pP90, respectively. 6-PN and 8-PN induced time dependent increase of p70s6-kinase.
as §1
To further analyze the type of cell death induced by 6-PN and 8-PN, western blot analyses of SK-MEL-28 melanoma cells were performed 1, 2, 4, 12 and 24 hours after the treatment with 100 μM 6-PN and 8-PN. […] Upon PN treatment an inconsistent expression of oncogenic AKT and phospho-AKT (pAKT) was detected. […] Thus, there was an obvious discrepancy between the expression of pAKT and pS6P. Therefore it was first also looked for the expression of P70S6 kinase and its phosphorylated form. […] Therefore it was next asked whether the S6P could be phosphorylated by a different mechanism. In this respect, activated ERK can phosphorylate the p90 ribosomal S6 kinase (pP90). pP90 also phosphorylates the S6P (in addition to the P70S6 kinase). Since the pP70S6 kinase was absent in the used cells (SK-MEL-28 and BLM), it was hypothesized that the phosphorylation of the S6P was conducted via the pERK/pP90 pathway, independent from the P70S6 signalling. This hypothesis was supported by the parallel down-regulation of the bands for pP90 (Thr359/Ser363) and pS6P 12 hours after the treatment with 6-PN, and the reappearance of both bands after 24 hours (FIG. 8). […] The western blot experiments were repeated with BLM cells under the same treatment conditions and yielded similar results (not shown).

Compound: CC(C)=CCc1c(O)cc(O)c2c1OC(c1ccc(O)cc1)CC2=O (stereo not drawn) [8-PN, 5,7-Dihydroxy-2-(4-hydroxy-phenyl)-8-(3-methyl-but-2-enyl)-chroman-4-one]
- angiogenesis [1]: inhibits the angiogenesis
- shift from LC3-I to LC3-II (autophagy) [2]: clearly induced the shift
- antiproliferative effects [3]: antiproliferative effects
- invasive cells per high power field (BLM melanoma cells; untreated 39±13): 6±2
- MIB1 positive cells per high power field (BLM melanoma cells; untreated 103±15): 16±4
- protein levels of caspase-3 and Bcl-xl ([4]; 1-24 hours): decreased protein levels
- phospho-S6 protein (pS6P) expression ([4]; after 4 hours, 12 hours, and 24 hours): strongly down regulated
- pERK expression ([4]; after 12 hours and 24 hours): strong down regulation
- P70S6 kinase bands ([4]; time-dependent (1-24 hours)): down-regulated
